The values that follow come from article PMC7459655 (Biomedicines, 2020).

In data set [1] the test system is P. falciparum CQ-sensitive strain 3D7.
Data set [2] shares this test system. The data set is described as follows: microbe, parasite or virus in culture. Particulars: Plasmodium falciparum, 3D7, 72 h.
Data set [3] has as its system P. falciparum mature gametocytes (male gametogenesis). Format: cell-based, Plasmodium falciparum.
For data set [4], the system named is P. falciparum CQ-resistant strain Dd2.
Data set [5] relates to leukemia cell line Nalm-6.
The nature of another data set: in vitro. Particulars: human.
Data set [6] relates to P. falciparum CQ-resistant strain Dd2. The data set is described as follows: microbe, parasite or virus in culture. As to conditions: Plasmodium falciparum, DD2, 72 h.
Data set [7] relates to non-infected erythrocytes.
Data set [8] relates to P. falciparum gametocyte-producing strain NF54 gametocytes. The class given is cell-based, Plasmodium falciparum.

Several values for one entry are separate records, joined by “and”; a condition that tells them apart may be missing. Equal values may be shown once. Some results are limits rather than exact numbers.

Take `O[As]12(OC(C(F)(F)F)(C(F)(F)F)c3ccccc31)OC(C(F)(F)F)(C(F)(F)F)c1ccccc12` [As-5]: the “antiplasmodial activity against 3D7 (in words)” value in [1] is “higher micromolar ranges”. In addition, in [2], the IC50 came out at 16.6 ± 3.09 µM and the IC90 was determined as 149 µM.
Turning to `CC(C)[C@H]1COC(c2ccccc2[As](c2ccccc2)c2ccccc2)=N1` [As-10], the “antiplasmodial activity against 3D7 (in words)” value in data set [1] is recorded as “higher micromolar ranges”. Further, in data set [2], the IC50 was found to be 18.1 ± 3 µM and the IC90 was 163 µM.
On to `Cc1ccc2ccccc2c1[As](=O)(O)c1c(C)ccc2ccccc12` [As-8], for which the “reduction in exflagellation (numbers of exflagellation centers)” value in data set [3] was 67% and 87%. Besides, in data set [4], the “SI (ratio of CC50 and IC50)” value was more than 286; the “antiplasmodial activity against Dd2 compared to 3D7 (in words)” value is recorded as “increased activities”. In [1], the “SI (ratio of CC50 and IC50)” value is listed as more than 66; the “antiplasmodial activity against 3D7 (in words)” value is reported as “lower micromolar ranges”. The “cytotoxic effect, LDH release (in words)” value in [5] is listed as “No noticeable cytotoxic effect”. This compound displayed a CC50 in “in vitro” of more than 100 µM. In [6], this compound displayed an IC50 of 0.35 ± 0.099 µM and an IC90 of 3.15 µM. In data set [2], this compound returned an IC50 of 1.52 ± 0.089 µM and an IC90 of 13.7 µM. The “hemolytic effect on erythrocytes (in words)” value in [7] is reported as “no hemolytic effect”. Also, in data set [8], the “reduction of gametocyte development (stage IV and V gametocytes)” value was “about 60%”.
`c1ccc(-c2ccccc2[As]23(OCCO2)OCCO3)cc1` [As-4]: in data set [4], the “SI (ratio of CC50 and IC50)” value is on record as more than 3; the “antiplasmodial activity against Dd2 compared to 3D7 (in words)” value is listed as “reduced antiplasmodial activities”. Further, in data set [1], the “SI (ratio of CC50 and IC50)” value is more than 12; the “antiplasmodial activity against 3D7 (in words)” value was “lower micromolar ranges”. The compound also gave a CC50 in “in vitro” of more than 100 µM. The compound also yielded an IC50 in data set [6] of 30.1 ± 2.07 µM. In [2], this compound gave an IC50 of 8.64 ± 0.963 µM and an IC90 of 77.8 µM. Also, the “hemolytic effect on erythrocytes (in words)” value in data set [7] is “no hemolytic effect”.
In the case of `CCCCCCCCCCCC[As](=O)(CCCCCCCCCCCC)CCCCCCCCCCCC` [As-11], in [1], the “antiplasmodial activity against 3D7 (in words)” value was “higher micromolar ranges”. Half-maximal inhibition in [2] (IC50) required 43 ± 5.7 µM.
